Results reported in patent US20140271930A1, “NONINVASIVE METHOD FOR MEASURING METABOLITES FOR SKIN HEALTH” (priority 2013, published 2014).
Marks after values point to notes of the source that are not given here. Peptide text beside a SMILES is read from it.

Tested on: scalp of dandruff and non-dandruff subjects
Assay: Metabolite expression profiling (LC/MS/MS, GC/MS/MS) of scalp D-Squame tape strip extracts: non-dandruff, dandruff baseline, dandruff after 3 weeks anti-dandruff shampoo
Type: in vivo, human
Settings: for Fold Change Wk 3 Sel vs Dandruff Baseline / Fold Change Wk 3 ZPT vs Dandruff Baseline / Fold Change Wk 3 ZPT vs Non-Dan Baseline / Fold Change Wk 3 Sel vs Non-Dan Baseline: metabolite level in scalp tape strips; for Fold Change Wk 3 Sel vs Dandruff Baseline / Fold Change Wk 3 ZPT vs Dandruff Baseline: standardized to soluble protein; for Fold Change Wk 3 Sel vs Dandruff Baseline: dandruff subjects after 3 weeks 1% selenium sulfide shampoo vs own baseline; for Fold Change Wk 3 ZPT vs Dandruff Baseline: dandruff subjects after 3 weeks 1% zinc pyrithione shampoo vs own baseline; for Fold Change Wk 3 ZPT vs Non-Dan Baseline: dandruff subjects after 3 weeks 1% ZPT shampoo vs non-dandruff subjects; for Fold Change Wk 3 Sel vs Non-Dan Baseline: dandruff subjects after 3 weeks 1% selenium sulfide shampoo vs non-dandruff subjects; for reduction / decrease of metabolite level vs dandruff baseline: after three weeks ZPT shampoo; for decrease of metabolite level vs dandruff baseline: after three weeks selenium sulfide shampoo
Text: In an embodiment, the use of an adhesive device can be used to achieve such sampling. In preparation for such a sampling study for a dandruff sampling, at a baseline visit, a qualified screening grader will complete adherent scalp flaking score (ASFS) grading for each subject and the highest flaking octant will be identified for tape strip sampling. The highest flaking octant will be sampled at baseline and at various time points during and after treatment with product. Tape strips samples will be collected from each subject at each time point (e.g., baseline and week 3).
The tape strip sampling procedure is repeated additional times, as needed, at the same site placing each D-Squame® tape disc on top of the prior sampled area. The D-Squame® tapes after sample collection are placed into the appropriately labeled wells in a labeled plate.
Following the sampling, an extraction and quantitation procedure is conducted. In an embodiment of the present invention, quantitation of small molecules from extracts of D-Squame® Tape Samples can be conducted via analysis by either LC/MS/MS or GC/MS/MS. In this embodiment of the present invention, the sample extraction in preparation for Metabolite expression profiling technology was performed.
The D-Squame® tape sample plates are removed from −80° C. freezer where they are stored following sample collection, and placed on dry ice. The tape strips are inserted into pre-labeled polypropylene collection tubes, adhesive side facing inward. Extraction buffer containing methanol and water is added to each collection tube and then extracted on ice using sonication for 15 min. If necessary, additional tapes are placed in the collection tube containing the extract solution and the extraction process is repeated as a means of concentrating the sample. Each extract solution is isolated from the tape strip and an aliquot of each sample is placed into a pre-labeled polypropylene collection tubes and frozen at −80° C. for metabolite expression profiling analysis. A separate aliquot is specified for soluble protein analysis using a BCA™ Protein Assay Kit. For this analysis, the aliquot consisting of methanol and water is taken to dryness under a gentle stream of nitrogen. The sample is resuspended in an appropriate aqueous buffer (e.g., PBS/SDS (1× PBS+0.2% SDS) and analyzed for soluble protein.
The extracts are analyzed by GC/MS/MS and LC/MS/MS in positive and negative ion mode. Chromatographic separation followed by full scan mass spectra and MS/MS spectra is carried out to record and quantify all detectable ions present in the samples. Metabolites with known chemical structure can be identified by matching the ions' chromatographic retention index and mass spectra fragmentation signatures with reference library entries created from authentic standard metabolites under the identical analytical procedure as the experimental samples. Welch's Two Sample t-tests and matched-pair t-tests are used to analyze the data. […] The statistical analyses are performed on natural log-transformed data to reduce the effect of any potential outliers in the data. Welch's Two Sample t-test comparisons are made between the means of each biochemical from the various groups listed at the top of the tables and are calculated using either or both of the statistical analysis software programs: Array Studio (Omicsoft, Inc) or “R” from the Free Software Foundation, Inc.
Subjects are evaluated by a qualified grader to establish their scalp status. Dandruff subjects are identified by their level of visible flaking as assessed by a qualified grader. Non-dandruff healthy scalp subjects are evaluated at baseline to establish normalized levels of each biomarker. In this study, there are 60 non-dandruff subjects that are evaluated at baseline. […] They are evaluated at baseline, and after 3 weeks of product usage.

[1] = dandruff subjects after 3 weeks treatment with Sel shampoo, metabolite level in scalp tape strip extract
[2] = dandruff subjects after 3 weeks treatment with ZPT shampoo, metabolite level in scalp tape strip extract
[3] = relative metabolite level in scalp tape strips, dandruff subjects after 3 weeks 1% ZPT shampoo
[4] = relative metabolite level in scalp tape strips, dandruff subjects after 3 weeks 1% selenium sulfide shampoo

Row | Compound | Mean Values WEEK 3 TRT Sel [1] | Mean Values WEEK 3 TRT ZPT [2] | Fold Change Wk 3 Sel vs Dandruff Baseline | Fold Change Wk 3 ZPT vs Dandruff Baseline | Fold Change Wk 3 ZPT vs Non-Dan Baseline | Fold Change Wk 3 Sel vs Non-Dan Baseline | reduction / decrease of metabolite level vs dandruff baseline [%] | decrease of metabolite level vs dandruff baseline [%] | Mean Values WEEK 3 TRT ZPT [3] | Mean Values WEEK 3 TRT Sel [4]
1 | CCCCCC/C=C\CCCCCCCC(=O)O [Palmitoleate (16:1n7), Palmitoleate] | 0.6347 | 0.8507 | 0.55* fold | 0.83* fold | 0.58* fold | 0.43* fold |  |  |  | 
2 | CCCCCCCCCCCCCCCCCC(=O)NCCO [Stearoyl ethanolamide] | 2.6645 | 2.3466 | 5.03** fold | 2.94 fold | 3.88** fold | 4.41** fold |  |  |  | 
3 | NC(N)=O [Urea] | 2.5539 | 2.6469 | 2.81**** fold | 4.13 fold | 3.75 fold | 3.62** fold |  |  |  | 
4 | O=c1[nH]c(=O)c2[nH]cnc2[nH]1 [Xanthine] |  |  |  |  |  |  | 84 | 85 |  | 
5 | CCCCCCCCCCCCCCCCCCCC(=O)O [arachidate (20:0), arachidate] | 0.6154 | 0.7662 | 0.42* fold | 0.55* fold | 0.56*** fold | 0.45*** fold |  |  |  | 
6 | CCCCC/C=C\C/C=C\C/C=C\C/C=C\CCCC(=O)O [arachidonate (20:4n6), arachidonate] |  |  |  |  |  |  | 44 | 70 |  | 
7 | CCCCCCCCCCCCCCCCCCCCCC(=O)O [behenate (22:0), behenate] |  |  | 0.84 fold | 0.47 fold | 0.34* fold | 0.57*** fold |  |  |  | 
8 | O=C(O)/C=C\c1cnc[nH]1 [cis-urocanate] |  |  | 1.22 fold | 1.19 fold | 0.91 fold | 0.99 fold |  |  |  | 
9 | CCCCC/C=C\C/C=C\CCCCCCCCCC(=O)O [dihomo-linoleate (20:2n6), dihomo-linoleate] | 0.214 | 0.3984 | 0.15* fold | 0.3* fold | 0.32* fold | 0.17* fold |  |  |  | 
10 | CCCCC/C=C\C/C=C\CCCCCCCCCCCC(=O)O [docosadienoate (22:2n6), docosadienoate] | 0.1554 | 0.3022 | 0.12* fold | 0.24* fold | 0.28* fold | 0.14* fold |  |  |  | 
11 | CC/C=C\C/C=C\C/C=C\CCCCCCCCCCCC(=O)O [docosatrienoate (22:3n3), docosatrienoate] | 0.2735 | 0.5705 | 0.13* fold | 0.26* fold | 0.32 fold | 0.15* fold |  |  |  | 
12 | O=P(O)(O)OCC(O)CO (stereo not drawn) [glycerol 3-phosphate (G3P)] | 0.8007 | 0.5943 |  |  |  |  |  |  |  | 
13 | O=C(O)CCc1cnc[nH]1 [imidazole propionate] |  |  |  |  |  |  |  |  | 0.8095 | 0.7836
14 | CC(C)CCCCCCCCCCCCC(=O)O [isopalmitic acid] | 0.3034 | 0.5169 | 0.23* fold | 0.41* fold | 0.41* fold | 0.24* fold |  |  |  | 
15 | CCCCC/C=C\C/C=C\CCCCCCCC(=O)O [linoleate (18:2n6), linoleate] |  |  |  |  |  |  | 82 | 78 |  | 
16 | CCCCCCCCCCCCCCCCC(=O)O [margarate (17:0), margarate] | 0.3903 | 0.6953 | 0.31* fold | 0.6*** fold | 0.45* fold | 0.25* fold |  |  |  | 
17 | CCCCCCCCCCCCCCCCCCC(=O)O [nonadecanoate (19:0), nonadecanoate] | 0.3608 | 0.5421 | 0.29* fold | 0.47* fold | 0.39* fold | 0.26* fold |  |  |  | 
18 | CCCCCCCC/C=C\CCCCCCCC(=O)NCCO [oleic ethanolamide] | 1.1213 | 1.5447 |  |  |  |  |  |  |  | 
19 | CCCCCCCCCCCCCCC(=O)O [pentadecanoate (15:0), pentadecanoate] | 0.3057 | 0.5867 | 0.19* fold | 0.4* fold | 0.37* fold | 0.19* fold |  |  |  | 
20 | CC[C@H](C)[C@H](NC(=O)[C@@H](N)CO)C(=O)O [serylisoleucine*] (H-Ser-Ile-OH) | 1.1161 | 0.9496 |  |  |  |  |  |  |  | 
21 | O=C(O)/C=C/c1cnc[nH]1 [trans-urocanate] |  |  | 0.74* fold | 0.87 fold | 1.41 fold | 1.21 fold |  |  | 1.0096 | 0.8661
22 | Eicosenoate [Eicosenoate (20:1n9 or 11)] | 0.202 | 0.3561 |  |  |  |  |  |  |  | 
23 | dimethylarginine (SDMA + ADMA) | 0.8338 | 1.0243 |  |  |  |  |  |  |  | 
24 | linolenate [alpha or gamma; (18:3n3 or 6)] |  | 0.8941 |  |  |  |  |  |  |  | 
